Reference: ChEMBL document CHEMBL5360671, “Targeting KRASG12D Mutations: Discovery of Small Molecule Inhibitors for the Potential Treatment of Intractable Cancers” (ACS Med Chem Lett, 2023)

Key:
[1] = biological target: Mitogen-activated protein kinase; ERK1/ERK2 (Homo sapiens, UniProt P27361+P28482); assay: Inhibition of ERK1/2 phosphorylation in human PANC-1 cells incubated for 3 hrs; assay type: cell-based
[2] = Drug absorption in Balb/c mouse assessed as fraction of drug absorbed into portal vein at 1 mg/kg, […] measured for 24 hrs by UPLC-MS/MS analysis; assay type: ADME, organism-based; conditions: in vivo
[3] = Oral bioavailability in Balb/c mouse at 30 mg/kg measured for 24 hrs by UPLC-MS/MS analysis; assay type: ADME, organism-based; conditions: in vivo

Row | Compound | IC50 [1] | FaFg [2] | bioavailability [3]
1 | C#Cc1c(F)ccc2cc(O)cc(-c3ncc4c(N5C[C@H]6CC[C@@H](C5)N6)nc(OC[C@@]56CCCN5C[C@H](F)C6)nc4c3F)c12 [MRTX-1133] | 2.3 nM | 0.95% | 0.66%
2 | C#Cc1c(F)ccc2cccc(-c3nc4c5c(nc(OC[C@@]67CCCN6C[C@H](F)C7)nc5c3F)N3C[C@H]5CC[C@H](N5)[C@H]3CO4)c12 | 2 nM | 54% | 37.7%
3 | CCc1c(F)ccc2cc(O)cc(-c3nc4c5c(nc(OC[C@@]67CCCN6C[C@H](F)C7)nc5c3F)N3C[C@H]5CC[C@H](N5)[C@H]3CO4)c12 | 0.76 nM | – | –
4 | C#Cc1cccc2cccc(-c3nc4c5c(nc(OC[C@@]67CCCN6C[C@H](F)C7)nc5c3F)N3C[C@H]5CC[C@H](N5)[C@H]3CO4)c12 | 10 nM | 56.6% | 39.2%
5 | Oc1cc(-c2nc3c4c(nc(OC[C@@]56CCCN5C[C@H](F)C6)nc4c2F)N2C[C@H]4CC[C@H](N4)[C@H]2CO3)c2c(Cl)cccc2c1 | 5 nM | – | –
6 | Oc1cc(-c2nc3c4c(nc(OC[C@@]56CCCN5C[C@H](F)C6)nc4c2F)N2CC4CCC(N4)C2CO3)c2c(Cl)cccc2c1 (some centres undefined) | 33 nM | – | –
7 | C#Cc1c(F)ccc2cccc(-c3nc4c5c(nc(OC[C@@]67CCCN6C[C@H](F)C7)nc5c3F)N3CC5CCC(N5)C3CO4)c12 (some centres undefined) | 9 nM | – | –
8 | Oc1cc(Cl)c(C2CC2)c(-c2nc3c4c(nc(OC[C@@]56CCCN5C[C@H](F)C6)nc4c2F)N2CC4CCC(N4)C2CO3)c1 (some centres undefined) | 7 nM | – | –
